ChEMBL document CHEMBL1201862, “PubChem BioAssay data set” (2004)
The source made the active and inactive calls.

How the values were obtained:
[1] = target: Peroxisome proliferator-activated receptor gamma/Nuclear receptor coactivator 2 (Homo sapiens, UniProt P37231); assay: (§1) TR-FRET dose response biochemical High Throughput Screening assay for agonists of the steroid receptor coactivator 2 (SRC-2) recruitment by the peroxisome proliferator-activated receptor gamma (PPAR gamma): non-selective agonists. [Related pubchem assays: 1297, 1032 ]; assay type: functional
[2] = target: Peroxisome proliferator-activated receptor gamma/Nuclear receptor coactivator 1 (Homo sapiens, UniProt P37231); assay: as §1, with “1 (SRC-1)” for “2 (SRC-2)”, “assays (depositor defined):AID1300, AID1808, AID504735, AID631]” for “assays: 1297, 1032 ]”; assay type: protein assay
[3] = target: Peroxisome proliferator-activated receptor gamma/Nuclear receptor coactivator 3 (Homo sapiens, UniProt P37231); assay: as §1, with “3 (SRC-3)” for “2 (SRC-2)”, “1301 (Confirmation screen.), 1048 (Primary screen.)]” for “1297, 1032 ]”; assay type: functional
[4] = target: T1, Cytochrome P450 1A2 (Homo sapiens, UniProt P05177);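 also: PubChem cytochrome P450 panel assay, CYP1A2 panel member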
T1 sequence (P05177 whole entry): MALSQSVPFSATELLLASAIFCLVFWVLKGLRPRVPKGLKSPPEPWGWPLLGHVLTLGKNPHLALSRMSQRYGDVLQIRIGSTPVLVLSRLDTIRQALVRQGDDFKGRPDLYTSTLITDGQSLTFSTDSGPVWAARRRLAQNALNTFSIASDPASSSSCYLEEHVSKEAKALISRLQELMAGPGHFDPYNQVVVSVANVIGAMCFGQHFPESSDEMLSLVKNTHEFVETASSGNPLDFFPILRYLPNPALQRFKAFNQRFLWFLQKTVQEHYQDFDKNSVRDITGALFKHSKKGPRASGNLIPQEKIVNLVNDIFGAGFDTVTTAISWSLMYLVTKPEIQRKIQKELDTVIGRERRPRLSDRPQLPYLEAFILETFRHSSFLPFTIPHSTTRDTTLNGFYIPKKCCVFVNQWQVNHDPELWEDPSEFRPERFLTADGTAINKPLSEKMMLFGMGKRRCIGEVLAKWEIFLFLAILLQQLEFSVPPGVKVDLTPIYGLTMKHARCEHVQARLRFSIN

[5] = target: T2, Cytochrome P450 2C9 (Homo sapiens, UniProt P11712)
[6] = target: T3, Sentrin-specific protease 6 (Homo sapiens, UniProt Q9GZR1); assay type: functional;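 also: Luminescence-based dose-response confirmatory assay of SENP6 inhibition, following up an ultra-high-throughput screen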
T3 sequence (Q9GZR1 whole entry): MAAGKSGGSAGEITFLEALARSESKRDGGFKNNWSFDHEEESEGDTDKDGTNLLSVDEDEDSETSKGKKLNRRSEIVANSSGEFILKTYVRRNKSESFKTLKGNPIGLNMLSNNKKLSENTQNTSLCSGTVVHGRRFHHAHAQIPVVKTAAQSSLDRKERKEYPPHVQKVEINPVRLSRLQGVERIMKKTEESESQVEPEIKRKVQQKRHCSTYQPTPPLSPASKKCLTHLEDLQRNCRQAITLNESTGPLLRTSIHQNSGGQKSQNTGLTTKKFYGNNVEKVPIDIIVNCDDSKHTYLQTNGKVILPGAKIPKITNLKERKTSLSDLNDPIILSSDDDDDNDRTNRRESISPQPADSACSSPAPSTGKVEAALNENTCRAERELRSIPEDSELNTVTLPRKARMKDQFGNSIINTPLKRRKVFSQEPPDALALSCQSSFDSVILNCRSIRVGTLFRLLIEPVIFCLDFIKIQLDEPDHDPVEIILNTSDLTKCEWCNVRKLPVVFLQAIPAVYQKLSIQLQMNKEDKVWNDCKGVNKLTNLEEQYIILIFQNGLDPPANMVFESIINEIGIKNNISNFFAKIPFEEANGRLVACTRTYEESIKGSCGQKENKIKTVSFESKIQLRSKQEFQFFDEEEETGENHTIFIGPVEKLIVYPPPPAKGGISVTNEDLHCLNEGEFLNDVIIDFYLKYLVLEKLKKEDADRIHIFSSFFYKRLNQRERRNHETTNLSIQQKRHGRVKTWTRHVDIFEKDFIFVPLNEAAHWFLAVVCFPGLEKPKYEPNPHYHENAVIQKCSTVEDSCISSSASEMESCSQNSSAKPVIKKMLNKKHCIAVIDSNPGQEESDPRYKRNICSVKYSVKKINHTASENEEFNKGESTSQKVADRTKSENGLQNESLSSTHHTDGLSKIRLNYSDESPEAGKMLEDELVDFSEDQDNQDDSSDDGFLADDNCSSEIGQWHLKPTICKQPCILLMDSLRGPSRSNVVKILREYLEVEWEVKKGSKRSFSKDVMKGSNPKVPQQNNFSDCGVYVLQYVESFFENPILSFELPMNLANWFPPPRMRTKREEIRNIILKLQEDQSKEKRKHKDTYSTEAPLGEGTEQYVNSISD

[7] = target: T4, Sentrin-specific protease 7 (Homo sapiens, UniProt Q9BQF6); assay type: functional;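 also: Luminescence-based dose-response confirmation of ultra-high-throughput screening hits, measuring inhibition of SENP7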
T4 sequence (Q9BQF6 whole entry): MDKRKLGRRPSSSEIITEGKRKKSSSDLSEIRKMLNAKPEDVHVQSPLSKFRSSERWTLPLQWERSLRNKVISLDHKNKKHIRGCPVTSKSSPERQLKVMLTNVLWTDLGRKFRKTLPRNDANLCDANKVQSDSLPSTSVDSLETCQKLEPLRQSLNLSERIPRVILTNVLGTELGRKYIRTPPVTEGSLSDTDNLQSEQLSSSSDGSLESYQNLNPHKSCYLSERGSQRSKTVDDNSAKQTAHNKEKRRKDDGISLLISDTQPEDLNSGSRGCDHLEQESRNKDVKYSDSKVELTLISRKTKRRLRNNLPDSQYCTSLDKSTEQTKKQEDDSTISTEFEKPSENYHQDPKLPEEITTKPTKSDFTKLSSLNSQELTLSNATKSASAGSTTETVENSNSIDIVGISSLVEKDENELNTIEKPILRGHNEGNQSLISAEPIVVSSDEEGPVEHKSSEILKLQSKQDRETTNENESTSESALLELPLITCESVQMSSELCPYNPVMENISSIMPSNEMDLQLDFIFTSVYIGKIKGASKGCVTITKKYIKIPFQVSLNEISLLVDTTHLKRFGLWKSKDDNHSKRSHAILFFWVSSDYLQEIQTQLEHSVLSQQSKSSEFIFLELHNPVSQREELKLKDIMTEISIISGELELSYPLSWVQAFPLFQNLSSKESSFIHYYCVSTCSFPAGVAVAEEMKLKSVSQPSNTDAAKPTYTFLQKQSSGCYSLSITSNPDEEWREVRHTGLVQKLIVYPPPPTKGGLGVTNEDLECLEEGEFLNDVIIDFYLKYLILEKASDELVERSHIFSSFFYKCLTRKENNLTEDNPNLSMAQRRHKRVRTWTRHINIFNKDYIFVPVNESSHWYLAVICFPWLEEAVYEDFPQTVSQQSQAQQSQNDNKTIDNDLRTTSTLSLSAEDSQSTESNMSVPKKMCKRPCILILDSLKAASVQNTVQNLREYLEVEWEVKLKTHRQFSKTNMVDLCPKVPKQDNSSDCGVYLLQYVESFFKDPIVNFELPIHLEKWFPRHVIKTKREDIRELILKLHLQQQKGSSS

[8] = target: T5, Caspase-3 (Homo sapiens, UniProt P42574); assay type: functional;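 also: Dose-response selectivity test against caspase-3 for candidate inhibitors of sentrin-specific proteases (SENPs)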
T5 sequence (P42574 whole entry): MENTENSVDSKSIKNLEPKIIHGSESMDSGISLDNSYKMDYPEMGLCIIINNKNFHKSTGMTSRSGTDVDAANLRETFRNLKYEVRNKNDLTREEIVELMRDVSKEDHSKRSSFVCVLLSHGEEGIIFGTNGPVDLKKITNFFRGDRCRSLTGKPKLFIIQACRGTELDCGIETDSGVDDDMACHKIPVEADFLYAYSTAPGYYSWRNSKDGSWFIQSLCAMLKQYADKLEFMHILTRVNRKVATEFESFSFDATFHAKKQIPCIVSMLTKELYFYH

[9] = target: T6, Sentrin-specific protease 8 (Homo sapiens, UniProt Q96LD8); assay type: functional;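 also: luminescence read-out of SENP8 inhibition, dose-response confirmation following an ultra-high-throughput screen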
T6 sequence (Q96LD8 whole entry): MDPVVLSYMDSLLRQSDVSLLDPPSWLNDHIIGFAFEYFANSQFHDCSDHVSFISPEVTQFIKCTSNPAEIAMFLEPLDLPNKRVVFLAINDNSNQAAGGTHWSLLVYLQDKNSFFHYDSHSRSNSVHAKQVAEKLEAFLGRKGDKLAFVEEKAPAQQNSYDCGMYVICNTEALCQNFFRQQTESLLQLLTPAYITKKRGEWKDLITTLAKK

[10] = target: T2, Cytochrome P450 2C9; remark: listed apart in the source
[11] = target: Cytochrome P450 3A4 (Homo sapiens, UniProt P08684);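 also: CYP3A4 tested as one member of a cytochrome P450 panel screen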
[12] = target: Cytochrome P450 2C19 (Homo sapiens, UniProt P33261); assay: Cytochrome panel assay with activity outcomes. Panel member name: p450-cyp2c19 Compounds with AC50 equal or less than 10 uM are considered active; assay type: functional; conditions: read-out: AC50
[13] = system: HEK293; assay: inhibitors of LMP1-driven NF-kB reporter, dose response, cell-based, HEK293, luciferase, cherry-pick (AID 588343); assay type: functional; conditions: Homo sapiens
[14] = C. albicans growth with fluconazole, confirmation, fluorescence, retest (AID 2467); assay type: functional, cell-based
[15] = NIH-3T3 fibroblast cytotoxicity, dose response, cytotoxicity control, cell-based, fluorescence, Alamar Blue, secondary assay (AID 2327); assay type: functional;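 also: NIH-3T3 mouse fibroblasts cultured with fluconazole at 8 µg/mL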
[16] = Shn3 3'UTR reporter inhibitors, dose response, cell-based, Clone20 osteoblasts, firefly luciferase, cherry-picked (AID 624132); assay type: functional;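 also: firefly luciferase luminescence from reporter carrying the Shn3 3'UTR in osteoblasts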
[17] = HepG2 cell cytotoxicity, dose response, cytotoxicity control for Shn3 inhibitor project, CellTiter-Glo, cherry-picked (AID 624134); assay type: functional, cell-based
[18] = control 3'UTR Renilla luciferase suppression, dose response, counter-screen for Shn3 inhibitor project, cell-based, Clone20-Shn3RL, cherry-picked (AID 624133); assay type: functional
[19] = target: T7, Streptokinase A (Streptococcus pyogenes serotype M1, UniProt P10520); assay: S. pyogenes streptokinase expression inhibitors, potency, dose response, plasminogen activation absorbance, OD405 (AID 1914); assay type: functional, Streptococcus pyogenes M1 GAS;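 also: secreted streptokinase activity via plasminogen activation per viability signal from cell pellet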
T7 sequence (P10520 whole entry): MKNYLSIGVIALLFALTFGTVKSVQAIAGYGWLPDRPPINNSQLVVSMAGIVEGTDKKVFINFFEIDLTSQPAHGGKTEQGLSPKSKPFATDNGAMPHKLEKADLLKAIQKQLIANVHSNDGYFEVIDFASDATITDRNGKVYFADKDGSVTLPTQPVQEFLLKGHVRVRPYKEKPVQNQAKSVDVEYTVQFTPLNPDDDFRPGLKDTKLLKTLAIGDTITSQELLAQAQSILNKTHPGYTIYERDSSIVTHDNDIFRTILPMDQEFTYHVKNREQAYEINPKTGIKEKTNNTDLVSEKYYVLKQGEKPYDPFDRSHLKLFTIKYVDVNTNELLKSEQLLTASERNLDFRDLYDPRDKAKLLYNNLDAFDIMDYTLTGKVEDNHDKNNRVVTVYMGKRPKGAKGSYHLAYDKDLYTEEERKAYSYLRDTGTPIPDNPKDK

[20] = system: Streptococcus sp. 'group A'; assay: growth inhibition of control SK(-) GAS strain, dose response, counter-screen for streptokinase expression inhibitor project, luminescence, kanamycin, BacTiterGlo, confirmation (AID 1900); assay type: functional, organism-based
[21] = target: Cytochrome P450 2D6 (Homo sapiens, UniProt P10635);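 also: CYP2D6 member of a cytochrome P450 panel assay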
[22] = system: Streptococcus; assay: Group A Streptococcus viability loss, dose response, counter-screen for streptokinase expression inhibitor project, luminescence, BacTiterGlo (AID 1915); assay type: functional, organism-based;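 also: potency for reduction of bacterial viability or growth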

T2 sequence (P11712 whole entry): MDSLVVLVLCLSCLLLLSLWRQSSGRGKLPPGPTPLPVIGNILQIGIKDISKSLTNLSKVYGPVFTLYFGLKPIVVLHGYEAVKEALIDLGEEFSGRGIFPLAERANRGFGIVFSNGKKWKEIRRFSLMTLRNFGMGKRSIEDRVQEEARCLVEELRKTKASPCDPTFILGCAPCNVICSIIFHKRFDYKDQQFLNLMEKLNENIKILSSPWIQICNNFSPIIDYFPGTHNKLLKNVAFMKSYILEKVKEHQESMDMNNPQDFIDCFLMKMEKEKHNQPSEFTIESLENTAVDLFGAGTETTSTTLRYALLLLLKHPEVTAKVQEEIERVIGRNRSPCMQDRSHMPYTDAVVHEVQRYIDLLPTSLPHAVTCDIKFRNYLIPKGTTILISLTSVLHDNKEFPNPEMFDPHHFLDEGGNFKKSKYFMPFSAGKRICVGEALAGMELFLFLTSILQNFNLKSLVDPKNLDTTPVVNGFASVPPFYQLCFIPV
Cytochrome P450 3A4, sequence (P08684 whole entry): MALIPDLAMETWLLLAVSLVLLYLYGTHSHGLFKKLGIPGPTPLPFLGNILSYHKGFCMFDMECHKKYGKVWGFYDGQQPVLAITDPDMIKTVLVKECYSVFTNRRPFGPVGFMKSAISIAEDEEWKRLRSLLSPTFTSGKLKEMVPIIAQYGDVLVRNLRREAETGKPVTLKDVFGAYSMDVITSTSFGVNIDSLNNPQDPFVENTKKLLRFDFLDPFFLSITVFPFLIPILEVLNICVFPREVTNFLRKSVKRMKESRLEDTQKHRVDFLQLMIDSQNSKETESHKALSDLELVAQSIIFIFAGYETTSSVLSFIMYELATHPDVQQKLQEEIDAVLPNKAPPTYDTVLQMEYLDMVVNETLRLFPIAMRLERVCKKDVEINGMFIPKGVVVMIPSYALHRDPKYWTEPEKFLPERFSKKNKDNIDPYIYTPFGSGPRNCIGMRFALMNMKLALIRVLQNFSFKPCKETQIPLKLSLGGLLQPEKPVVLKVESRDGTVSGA
Peroxisome proliferator-activated receptor gamma/Nuclear receptor coactivator 3, sequence (P37231 whole entry): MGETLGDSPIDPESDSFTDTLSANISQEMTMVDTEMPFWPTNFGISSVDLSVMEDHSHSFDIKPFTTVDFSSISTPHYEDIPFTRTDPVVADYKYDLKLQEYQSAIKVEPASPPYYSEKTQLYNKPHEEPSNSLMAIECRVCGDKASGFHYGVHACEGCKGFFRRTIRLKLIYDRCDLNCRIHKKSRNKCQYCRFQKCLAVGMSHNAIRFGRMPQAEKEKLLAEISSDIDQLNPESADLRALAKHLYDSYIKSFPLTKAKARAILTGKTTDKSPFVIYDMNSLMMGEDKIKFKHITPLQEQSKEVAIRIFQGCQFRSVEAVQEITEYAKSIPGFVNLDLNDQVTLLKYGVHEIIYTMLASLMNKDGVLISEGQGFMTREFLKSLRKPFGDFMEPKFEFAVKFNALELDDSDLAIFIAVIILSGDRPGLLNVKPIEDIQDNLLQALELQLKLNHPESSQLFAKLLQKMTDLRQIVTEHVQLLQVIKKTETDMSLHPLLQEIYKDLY
Peroxisome proliferator-activated receptor gamma/Nuclear receptor coactivator 3, sequence (Q9Y6Q9 whole entry, further chain): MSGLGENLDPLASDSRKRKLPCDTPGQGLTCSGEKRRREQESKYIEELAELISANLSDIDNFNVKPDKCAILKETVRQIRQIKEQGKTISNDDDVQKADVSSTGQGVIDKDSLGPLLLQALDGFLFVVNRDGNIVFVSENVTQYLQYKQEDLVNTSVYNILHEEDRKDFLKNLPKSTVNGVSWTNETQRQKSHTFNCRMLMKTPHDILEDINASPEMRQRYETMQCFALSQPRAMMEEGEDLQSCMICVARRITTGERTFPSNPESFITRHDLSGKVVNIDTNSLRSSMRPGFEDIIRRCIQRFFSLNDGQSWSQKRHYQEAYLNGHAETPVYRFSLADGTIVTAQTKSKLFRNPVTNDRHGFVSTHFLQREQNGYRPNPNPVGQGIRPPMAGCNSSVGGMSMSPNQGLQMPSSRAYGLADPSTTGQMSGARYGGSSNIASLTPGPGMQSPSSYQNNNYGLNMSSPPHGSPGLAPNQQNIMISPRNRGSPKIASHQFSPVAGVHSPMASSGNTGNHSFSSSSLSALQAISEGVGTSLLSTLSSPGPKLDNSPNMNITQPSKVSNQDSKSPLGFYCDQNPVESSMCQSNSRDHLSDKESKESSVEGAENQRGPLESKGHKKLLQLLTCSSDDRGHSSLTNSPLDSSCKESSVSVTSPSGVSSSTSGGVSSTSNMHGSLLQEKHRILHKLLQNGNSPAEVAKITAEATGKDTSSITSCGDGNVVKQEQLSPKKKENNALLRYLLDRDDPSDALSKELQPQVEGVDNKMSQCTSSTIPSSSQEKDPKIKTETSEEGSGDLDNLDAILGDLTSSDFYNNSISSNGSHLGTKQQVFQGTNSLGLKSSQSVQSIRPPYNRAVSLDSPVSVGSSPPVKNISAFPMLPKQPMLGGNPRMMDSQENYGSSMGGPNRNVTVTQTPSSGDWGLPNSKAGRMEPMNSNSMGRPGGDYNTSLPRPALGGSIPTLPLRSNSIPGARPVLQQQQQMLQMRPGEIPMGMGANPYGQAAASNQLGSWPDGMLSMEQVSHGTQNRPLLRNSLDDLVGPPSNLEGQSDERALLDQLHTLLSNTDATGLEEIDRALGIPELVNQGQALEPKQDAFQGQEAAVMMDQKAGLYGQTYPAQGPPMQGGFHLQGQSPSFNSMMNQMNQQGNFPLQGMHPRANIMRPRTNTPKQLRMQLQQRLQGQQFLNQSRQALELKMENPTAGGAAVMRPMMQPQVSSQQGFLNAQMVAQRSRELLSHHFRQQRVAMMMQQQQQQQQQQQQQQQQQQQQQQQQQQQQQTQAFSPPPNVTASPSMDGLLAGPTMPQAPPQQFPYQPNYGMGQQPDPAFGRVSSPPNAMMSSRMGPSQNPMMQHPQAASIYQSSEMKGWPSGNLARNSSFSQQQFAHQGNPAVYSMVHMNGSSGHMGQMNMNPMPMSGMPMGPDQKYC
Peroxisome proliferator-activated receptor gamma/Nuclear receptor coactivator 1, sequence (P37231 whole entry): as the sequence (P37231 whole entry) above
Peroxisome proliferator-activated receptor gamma/Nuclear receptor coactivator 1, sequence (Q15788 whole entry, further chain): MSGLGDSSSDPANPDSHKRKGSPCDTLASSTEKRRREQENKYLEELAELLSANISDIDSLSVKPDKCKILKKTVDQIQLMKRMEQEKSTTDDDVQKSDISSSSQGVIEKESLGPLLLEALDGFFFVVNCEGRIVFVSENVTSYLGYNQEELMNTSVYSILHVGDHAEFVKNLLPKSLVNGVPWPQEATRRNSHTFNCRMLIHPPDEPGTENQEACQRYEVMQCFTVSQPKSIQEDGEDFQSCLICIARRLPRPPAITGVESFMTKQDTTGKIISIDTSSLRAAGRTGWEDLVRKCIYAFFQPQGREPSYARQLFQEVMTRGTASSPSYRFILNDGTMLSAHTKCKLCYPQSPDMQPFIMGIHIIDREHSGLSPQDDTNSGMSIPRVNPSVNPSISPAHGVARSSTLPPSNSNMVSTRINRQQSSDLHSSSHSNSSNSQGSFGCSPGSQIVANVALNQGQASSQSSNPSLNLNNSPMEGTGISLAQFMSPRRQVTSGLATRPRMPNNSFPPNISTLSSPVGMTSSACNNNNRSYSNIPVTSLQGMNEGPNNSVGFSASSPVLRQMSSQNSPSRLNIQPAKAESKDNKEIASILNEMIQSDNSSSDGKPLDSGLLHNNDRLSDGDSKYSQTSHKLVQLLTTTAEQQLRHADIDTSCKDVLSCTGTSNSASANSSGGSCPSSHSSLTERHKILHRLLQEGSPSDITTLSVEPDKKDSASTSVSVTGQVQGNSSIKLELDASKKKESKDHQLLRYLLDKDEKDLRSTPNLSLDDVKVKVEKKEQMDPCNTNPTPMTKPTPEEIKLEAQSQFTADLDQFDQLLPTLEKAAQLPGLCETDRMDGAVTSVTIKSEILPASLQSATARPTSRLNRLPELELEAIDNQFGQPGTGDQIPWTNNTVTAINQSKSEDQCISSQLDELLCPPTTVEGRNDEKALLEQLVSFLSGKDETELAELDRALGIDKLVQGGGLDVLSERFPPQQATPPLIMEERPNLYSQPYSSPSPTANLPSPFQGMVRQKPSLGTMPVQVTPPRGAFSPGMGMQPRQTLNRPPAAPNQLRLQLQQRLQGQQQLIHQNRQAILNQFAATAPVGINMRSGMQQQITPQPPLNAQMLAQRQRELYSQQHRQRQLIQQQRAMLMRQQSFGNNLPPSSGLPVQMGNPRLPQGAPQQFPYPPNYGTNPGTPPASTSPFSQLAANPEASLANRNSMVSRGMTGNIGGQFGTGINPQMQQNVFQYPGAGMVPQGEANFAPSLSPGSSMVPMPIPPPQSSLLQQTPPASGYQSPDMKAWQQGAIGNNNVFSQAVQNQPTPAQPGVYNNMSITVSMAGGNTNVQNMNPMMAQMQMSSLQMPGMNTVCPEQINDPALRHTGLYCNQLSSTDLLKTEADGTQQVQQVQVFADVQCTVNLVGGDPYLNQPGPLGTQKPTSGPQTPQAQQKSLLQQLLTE

In the case of `CN(CCCNC(=O)CSc1cc(=O)n(C)c2cc(Cl)ccc12)Cc1ccccc1`, the EC50 [1] is reported as > 79.4 µM (not active), the EC50 [2] is reported as > 79.4 µM (inactive) and the EC50 [3] is reported as > 79.4 µM (not active).

With `O=C(NCc1ccc(Cl)cc1)c1ccc(Cl)cc1[N+](=O)[O-]` the AC50 [4] was 2.82 µM (inconclusive) and the AC50 [5] was “inconclusive”.

In the case of `CCN(CCCNC(=O)CC(C(=O)N1CCc2ccccc21)n1ccnc1)c1ccccc1` (centres undefined), the AC50 [5] is reported as “inconclusive”.

In the case of `CSc1cnn(-c2ccccc2)c(=O)c1SC`, the EC50 [1] is reported as 1.75 µM (active), the EC50 [2] is reported as 1.97 µM (active) and the EC50 [3] is reported as > 79.4 µM (not active).

With `Cc1c(C(=O)O)cccc1-c1ccc(/C=C2/NC(=O)N(c3ccccc3)C2=O)o1` the IC50 [6] was 28.6 µM (active), the IC50 [7] was 21.2 µM (active) and the IC50 [8] was > 100 µM (inactive). For the same compound, the IC50 [9] was 45 µM (active).

With `O=C(c1cccc(F)c1)N1CCC2(CC1)CCN(C(c1ccccc1)c1ccccc1)CC2` the AC50 [10] was 39.8 µM (inconclusive), the AC50 [4] was 10 µM (inconclusive) and the AC50 [11] was “inconclusive”.

In the case of `COc1ccc(N2CCN(CCNC(=O)C3CCN(S(=O)(=O)c4cccs4)CC3)CC2)cc1`, the AC50 [10] is reported as 20 µM (inconclusive), the AC50 [12] is reported as 28.2 µM (inconclusive) and the AC50 [11] is reported as “inconclusive”.

For `O=C(O)c1ccc(-c2ccc(OS(=O)(=O)c3ccccc3F)cc2)cc1`, the IC50 [6] was 35 µM (active), the IC50 [7] was 6.6 µM (active) and the IC50 [8] was > 100 µM (inactive). The IC50 [9] was 56.4 µM (active).

With `O=c1c(-c2ccccc2)nc2cnc(Oc3ccccc3)nc2n1C1CC1` the AC50 [12] was 25.1 µM (inconclusive) and the AC50 [11] was “inconclusive”.

For `N=C(NOC(=O)c1cccc(Br)c1)c1ccccn1`, the AC50 [13] was 21.8 µM (active).

In the case of `Cn1c(=O)n(CC#N)c2ccccc21`, the EC50 [14] is reported as 4.1 µM (active), the EC50 [15] is reported as > 160 µM (inconclusive) and the AC50 [4] is reported as 12.6 µM (inconclusive). The AC50 [5] was “inconclusive”.

In the case of `CCCCC(=O)NC(c1ccc(OC)c(OC)c1)c1ccc2cccnc2c1O` (centres undefined), the AC50 [16] is reported as 1.36 µM (active), the AC50 [13] is reported as 7.93 µM (active) and the AC50 [17] is reported as 60.1 µM (active). For the same compound, the AC50 [18] was 1.4 µM (active).

With `Cc1nn(-c2ccccc2)c(C)c1/C=N/NC(=O)c1cc(-c2ccc(Cl)s2)[nH]n1` the EC50 [19] was > 150 µM (not active), the EC50 [20] was 10.8 µM (active) and the AC50 [21] was 25.1 µM (inconclusive). For the same compound, the EC50 [22] was 9.32 µM (active) and the AC50 [11] was “inconclusive”.
